Measured values as given in patent publication US20110263521A1, “PHARMACEUTICAL OR COSMETIC PREPARATIONS FOR TOPICAL AND/OR PARENTERAL APPLICATION, PREPARATION METHODS THEREOF AND USE OF SAME” (priority 2007, published 2011).
pIC50: −log10 of the molar value.

How the values were obtained:
[1] = target: T1, hyaluronidase of bovine origin (Bos taurus, UniProt Q2YDK3); experiment: Inhibitory effect of glycyrrhizin on hyaluronidase activity (turbidimetry of nonhydrolysed hyaluronic acid); assay type: biochemical; settings: without preincubation with the enzyme; read-out: concentration of GLZ which gives 50% inhibition (IC50) of the hyaluronidase activity
T1 sequence (Q2YDK3 36-553): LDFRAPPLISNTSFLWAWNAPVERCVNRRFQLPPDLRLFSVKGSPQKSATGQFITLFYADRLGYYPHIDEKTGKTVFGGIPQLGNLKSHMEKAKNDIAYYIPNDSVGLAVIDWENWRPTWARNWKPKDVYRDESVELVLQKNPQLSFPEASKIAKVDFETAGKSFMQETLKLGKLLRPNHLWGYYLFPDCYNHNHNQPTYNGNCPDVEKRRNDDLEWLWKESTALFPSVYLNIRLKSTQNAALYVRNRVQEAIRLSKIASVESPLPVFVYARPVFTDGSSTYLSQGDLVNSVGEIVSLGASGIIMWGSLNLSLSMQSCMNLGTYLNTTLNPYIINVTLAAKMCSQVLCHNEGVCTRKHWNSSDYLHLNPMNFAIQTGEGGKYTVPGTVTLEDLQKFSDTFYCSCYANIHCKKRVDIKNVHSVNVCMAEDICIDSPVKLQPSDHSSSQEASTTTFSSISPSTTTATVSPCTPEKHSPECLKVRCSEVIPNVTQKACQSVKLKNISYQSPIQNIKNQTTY
Procedure: Determination of the IC50 of GLZ, with or without Preincubation at 37° C.:
GLZ, at various concentrations, is or is not preincubated for 20 minutes at 37° C. in the presence of the enzyme. The enzyme reaction is triggered by adding the hyaluronic acid solution (time T0). After incubation for 20 minutes, the nonhydrolysed hyaluronic acid is precipitated by adding acidic bovine albumin solution.
In order to verify that the preincubation step has no effect on the stability of the hyaluronidase, an aliquot of a solution of the enzyme is placed at 37° C. for 20 minutes. Another aliquot is conserved in an ice bath for 19 minutes, and is then incubated at 37° C. for 1 minute. A solution of hyaluronic acid is then added to each aliquot (TO). After incubation for 15, 30 or 45 minutes, the nonhydrolysed hyaluronic acid is precipitated by addition of acidic bovine albumin solution.
After the precipitation step, the turbidimetry of the solutions is determined on a spectrophotometer at a wavelength of 600 nm. The optical density (OD) of these solutions is subtracted from the OD of a control solution of hyaluronic acid (of the same concentration) not hydrolysed by the enzyme. This difference in OD, which is inversely proportional to the concentration of hyaluronic acid, is used to measure the activity of the hyaluronidase.

[2] = humans; cited from earlier work

Compound | pIC50 [1] | excretion in the urine [2]
CC1(C)[C@@H](O[C@H]2O[C@H](C(=O)O)[C@@H](O)[C@H](O)[C@H]2O[C@@H]2O[C@H](C(=O)O)[C@@H](O)[C@H](O)[C@H]2O)CC[C@]2(C)[C@H]3C(=O)C=C4[C@@H]5C[C@@](C)(C(=O)O)CC[C@]5(C)CC[C@@]4(C)[C@]3(C)CC[C@@H]12 [GLZ, Glycyrrhizin] | 3.40 | –
hyaluronic acid | – | less than 1 % of total clearance
